Each block holds one molecule with its values, some of them ahead of it. No end group written: not given here.
Biological target: T1, human TAS1R2-R838K/TAS1R3-WT (Homo sapiens, UniProt Q7RTX0+Q8TE23, R838K)
T1 construct: expressed in transfected cells; host or cells: HEK293T-Gα16gust44
T1 sequence (Q8TE23 20-839 R838K): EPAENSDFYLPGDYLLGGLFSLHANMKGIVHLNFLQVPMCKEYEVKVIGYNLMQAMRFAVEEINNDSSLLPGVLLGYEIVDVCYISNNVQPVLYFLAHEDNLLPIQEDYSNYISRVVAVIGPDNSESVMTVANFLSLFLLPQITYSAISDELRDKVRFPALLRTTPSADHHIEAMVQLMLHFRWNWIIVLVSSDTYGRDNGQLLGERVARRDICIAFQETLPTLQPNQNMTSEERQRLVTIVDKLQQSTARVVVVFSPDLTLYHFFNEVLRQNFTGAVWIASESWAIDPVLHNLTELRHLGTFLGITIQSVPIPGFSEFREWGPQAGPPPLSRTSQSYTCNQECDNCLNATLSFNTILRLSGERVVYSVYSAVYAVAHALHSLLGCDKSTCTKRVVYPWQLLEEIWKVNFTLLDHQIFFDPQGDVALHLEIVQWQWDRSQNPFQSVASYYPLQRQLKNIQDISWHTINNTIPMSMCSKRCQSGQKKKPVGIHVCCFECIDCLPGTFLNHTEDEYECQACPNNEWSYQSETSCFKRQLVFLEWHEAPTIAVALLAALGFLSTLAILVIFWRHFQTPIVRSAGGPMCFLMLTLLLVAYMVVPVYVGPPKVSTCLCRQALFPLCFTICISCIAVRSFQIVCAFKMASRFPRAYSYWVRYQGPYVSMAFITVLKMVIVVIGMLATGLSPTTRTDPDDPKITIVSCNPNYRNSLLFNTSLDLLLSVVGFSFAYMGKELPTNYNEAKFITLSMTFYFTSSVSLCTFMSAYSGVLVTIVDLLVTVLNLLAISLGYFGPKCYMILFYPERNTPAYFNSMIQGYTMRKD
T1 sequence (Q7RTX0 21-852): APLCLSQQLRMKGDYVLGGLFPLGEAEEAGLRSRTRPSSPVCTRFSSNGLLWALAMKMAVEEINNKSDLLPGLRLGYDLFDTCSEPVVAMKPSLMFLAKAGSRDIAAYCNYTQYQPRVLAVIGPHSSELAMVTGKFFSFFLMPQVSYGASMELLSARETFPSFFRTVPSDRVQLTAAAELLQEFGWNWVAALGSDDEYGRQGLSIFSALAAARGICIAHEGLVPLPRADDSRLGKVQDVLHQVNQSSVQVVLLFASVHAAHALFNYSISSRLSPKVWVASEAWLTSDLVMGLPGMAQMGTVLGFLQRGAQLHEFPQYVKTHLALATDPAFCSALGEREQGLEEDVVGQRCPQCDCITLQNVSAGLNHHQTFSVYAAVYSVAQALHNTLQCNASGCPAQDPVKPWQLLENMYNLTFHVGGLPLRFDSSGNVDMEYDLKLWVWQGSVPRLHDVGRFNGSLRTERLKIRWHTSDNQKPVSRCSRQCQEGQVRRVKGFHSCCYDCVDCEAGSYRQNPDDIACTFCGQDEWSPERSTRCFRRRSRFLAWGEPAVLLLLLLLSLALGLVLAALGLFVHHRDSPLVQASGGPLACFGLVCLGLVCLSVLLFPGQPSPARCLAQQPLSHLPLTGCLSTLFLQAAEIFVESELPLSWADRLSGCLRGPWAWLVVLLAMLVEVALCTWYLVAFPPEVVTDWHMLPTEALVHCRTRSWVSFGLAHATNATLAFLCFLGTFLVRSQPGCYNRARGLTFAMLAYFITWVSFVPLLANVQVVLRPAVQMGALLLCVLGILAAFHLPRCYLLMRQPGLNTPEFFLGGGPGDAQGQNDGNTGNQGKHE
Experiment: Calcium mobilisation assay, TAS1R2 variant R838K with TAS1R3-WT
Assay type: cell-based
Conditions: for Max ΔF/F0: maximal signal amplitude
From the text: The coding sequences for TAS1R2 and TAS1R3 were commercially synthesised, and the human codon was optimised for expression in human cells. The coding sequences of human TAS1R2 and TAS1R3 were subcloned and inserted into the mammalian expression vectors pcDNA6/myc-HisA and pcDNA4/myc-HisA (Invitrogen; Thermo Fisher Scientific; Illkirch, France) between the EcoRI and NotI restriction sites, generating the plasmids pcDNA6-TAS1R2 and pcDNA4-TAS1R3, respectively. To increase protein expression in mammalian cells, an upstream start codon was used, which was a sequence called MAX, corresponding to the QBI SP163 element also described in pcDNA4-HisMax (Invitrogen; Thermo Fisher Scientific; Illkirch, France). To measure the expression level of the receptor by immunohistochemistry, we used the FLAG sequence ([…]) in the C-terminal position, which encodes the FLAG tag epitope. SNP variants of TAS1R2 and TAS1R3 were constructed based on […], respectively, using site-directed mutagenesis (Genewiz; Leipzig, Germany).
The HEK293T cells were kindly provided by Jay P. Slack (Givaudan Flavors Corporation; Cincinnati, OH, USA). HEK293T cells stably transfected with Gα16gust44 [43, 67] were seeded in poly-D-lysine-coated clear-bottom black 96-well plates (0.35 × 10^5 cells/well) in high-glucose DMEM supplemented with 2 mM GlutaMAX, 10% dialysed foetal bovine serum with penicillin/streptomycin and G418 (400 μg/mL) at 37 °C and 6.3% CO2 in a humidified atmosphere as previously reported. […] As a negative control, HEK293T cells were mock-transfected with the empty expression vector. After a further 24 h of incubation, the HEK293T cells were washed with C1 buffer (130 mM NaCl, 5 mM KCl, 10 mM HEPES pH 7.4 and 2 mM CaCl2). The 96-well plates containing the cells were then stimulated with sweet-tasting compounds. […] Different concentration ranges were tested depending on the sweet compound injected. The Ca^2+ changes were expressed as fractional changes in fluorescent light intensity: ΔF/F = (F − F0)/F0, where F was the fluorescent light intensity at each point, and F0 was the value of emitted fluorescent light prior to stimulus application. To calculate dose–response relationships, the changes in fluorescence upon stimulus application were averaged, mock-subtracted and baseline-corrected. The dose–response data obtained were adjusted using a 4-parameter logistic equation. The half-maximal effective concentrations (EC50 values) and maximal signal amplitudes were calculated using SigmaPlot software (version 15.0) (Systat Software; San Jose, CA, USA).
For in vitro calcium mobilisation assay performed on hTAS1R2-SNPs, hTAS1R3-SNPs and mTAS1R3-I60T, 6 to 7 concentrations were tested for each sweet compound, plus buffer alone. All concentration–receptor combinations were measured in duplicate, and each experiment was repeated at least 4 times (8 wells/concentration). Results were expressed for each concentration as ΔF/F mean ± SEM and represented as dose–response curves.

Molecule: CC1=CC(=O)NS(=O)(=O)O1 [Acesulfame K, acesulfame K]
- EC50: 484 ± 47 µM
- R1 = Variant EC50/WT EC50: 0.7
- Max ΔF/F0: 0.42 ± 0.02

Molecule: O=S(=O)(O)NC1CCCCC1 [Cyclamate, cyclamate]
- EC50: 1730 ± 24 µM

Molecule: C[C@H](CC[C@@H](O[C@@H]1O[C@H](CO[C@@H]2O[C@H](CO)[C@@H](O)[C@H](O)[C@H]2O)[C@@H](O)[C@H](O)[C@H]1O[C@@H]1O[C@H](CO)[C@@H](O)[C@H](O)[C@H]1O)C(C)(C)O)[C@H]1CC[C@@]2(C)[C@@H]3CC=C4[C@@H](CC[C@H](O[C@@H]5O[C@H](CO[C@@H]6O[C@H](CO)[C@@H](O)[C@H](O)[C@H]6O)[C@@H](O)[C@H](O)[C@H]5O)C4(C)C)[C@]3(C)[C@H](O)C[C@]12C [Mogroside V, mogroside V]
- EC50: 17.1 ± 0.9 µM
- R1 = Variant EC50/WT EC50: 1.0
- Max ΔF/F0: 1.31 ± 0.02

Molecule: COc1ccc(CCC(=O)c2c(O)cc(O[C@@H]3O[C@H](CO)[C@@H](O)[C@H](O)[C@H]3O[C@@H]3O[C@@H](C)[C@H](O)[C@@H](O)[C@H]3O)cc2O)cc1O [NHDC, neohesperidin dihydrochalcone]
- EC50: 75.8 ± 1.2 µM
- R1 = Variant EC50/WT EC50: 1.0
- Max ΔF/F0: 0.79 ± 0.05

Molecule: COC(=O)[C@H](Cc1ccccc1)NC(=O)[C@H](CC(=O)O)NCCC(C)(C)C [Neotame]
- EC50: 0.66 ± 0.05 µM
- R1 = Variant EC50/WT EC50: 0.8
- Max ΔF/F0: 0.75 ± 0.02

Other lines, results leading:

- EC50: 19.1 ± 1.2 µM
- R1 = Variant EC50/WT EC50: 1.1
- Max ΔF/F0: 1.45 ± 0.03
Molecule: C=C(C)[C@@H]1CC=C(/C=N/O)CC1 [Perillartine, perillartine]

- EC50: 18.2 ± 1.1 µM
- R1 = Variant EC50/WT EC50: 1.1
- Max ΔF/F0: 1.20 ± 0.01
Molecule: C=C1C[C@@]23CC[C@H]4[C@@](C)(CCC[C@@]4(C)C(=O)O[C@@H]4O[C@H](CO)[C@@H](O)[C@H](O[C@@H]5O[C@H](CO)[C@@H](O)[C@H](O)[C@H]5O)[C@H]4O[C@@H]4O[C@H](CO)[C@@H](O)[C@H](O)[C@H]4O)[C@@H]2CC[C@]1(O[C@@H]1O[C@H](CO)[C@@H](O)[C@H](O[C@@H]2O[C@H](CO)[C@@H](O)[C@H](O)[C@H]2O)[C@H]1O[C@@H]1O[C@H](CO)[C@@H](O)[C@H](O)[C@H]1O)C3 [Rebaudioside M, rebaudioside M]

- EC50: 82 ± 6 µM
- R1 = Variant EC50/WT EC50: 0.9
- Max ΔF/F0: 0.75 ± 0.02
Molecule: OC[C@H]1O[C@H](O[C@]2(CCl)O[C@H](CCl)[C@@H](O)[C@@H]2O)[C@H](O)[C@@H](O)[C@H]1Cl [Sucralose]

- R1 = Variant EC50/WT EC50: 1.2
- Max ΔF/F0: 1.2 ± 0.03
Molecule: brazzein (QDKCKKVYENYPVSKCQLANQCNYDCKLDKHARSGECFYDEKRNLQCICDYCEY; ends and bridges not checked; cysteine pairing not given here; UniProt P56552 1-54, looked up) [sweet-tasting protein obtained by recombinant production using the yeast Pichia pastoris]

- R1 = Variant EC50/WT EC50: 1.4
- Max ΔF/F0: 1.3 ± 0.02
Molecule: thaumatin

- EC50: 10.4 ± 0.2 µM
B1: thaumatin (protein)
chain: ATFEIVNRCSYTVWAAASKGDAALDAGGRQLNSGESWTINVEPGTKGGKIWARTDCYFDDSGSGICKTGDCGGLLRCKRFGRPPTTLAEFSLNQYGKDYIDISNIKGFNVPMDFSPTTRGCRGVRCAADIVGQCPAKLKAPGGGCNDACTVFQTSEYCCTTGKCGPTEYSRFFKRLCPDAFSYVLDKPTTVTCPGSSNYRVTFCPTA
modifications: Eight disulfides
notes: sweet-tasting plant protein, E957
